Experimental data: PubChem BioAssay AID248 (DTP/NCI, 2004)
“And” between values parts separate entries of the source, which are not always exact repeats. Equal entries are not always repeated. Inconclusive results and toxic doses are left out. Square brackets hold non-standard residues; d marks the D form. Peptide text beside a SMILES is read from it. * marks the point of attachment. Cbz = O=C(OCc1ccccc1)*; Sar = CNCC(=O)O

Test system: L1210 leukemia ip in BDF1 mice, survival T/C
Experiment: NCI In Vivo Anticancer Drug Screen. Data for tumor model L1210 Leukemia (intraperitoneal) in B6D2F1 (BDF1) mice
Settings: endpoint: mean survival time, higher = longer survival
Summary of the method: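 In this screen, tumor-bearing mice given compound are compared to those given vehicle, and their survival values are reported as a treated-to-control quotient.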

[1] = dose: 100.0 mg/kg/injection, schedule: Q01DX001 (ip), vehicle: Klucel (hydroxypropylcellulose) (HPC)
[2] = dose: 100.0 mg/kg/injection, schedule: Q01DX009 (ip), vehicle: Klucel (hydroxypropylcellulose) (HPC)
[3] = dose: 100.0 mg/kg/injection, schedule: Q04DX003 (ip), vehicle: Klucel (hydroxypropylcellulose) (HPC)
[4] = dose: 200.0 mg/kg/injection, schedule: Q01DX009 (ip), vehicle: Klucel (hydroxypropylcellulose) (HPC)
[5] = dose: 200.0 mg/kg/injection, schedule: Q04DX003 (ip), vehicle: Klucel (hydroxypropylcellulose) (HPC)
[6] = dose: 400.0 mg/kg/injection, schedule: Q01DX009 (ip), vehicle: Klucel (hydroxypropylcellulose) (HPC)
[7] = dose: 400.0 mg/kg/injection, schedule: Q04DX003 (ip), vehicle: Klucel (hydroxypropylcellulose) (HPC)
[8] = dose: 100.0 mg/kg/injection, schedule: Q04DX003 (ip), vehicle: saline
[9] = dose: 200.0 mg/kg/injection, schedule: Q04DX003 (ip), vehicle: saline
[10] = dose: 50.0 mg/kg/injection, schedule: Q01DX009 (ip), vehicle: saline with Tween-80
[11] = dose: 100.0 mg/kg/injection, schedule: Q01DX001 (ip), vehicle: carboxymethylcellulose (CMC)
[12] = dose: 200.0 mg/kg/injection, schedule: Q01DX001 (ip), vehicle: carboxymethylcellulose (CMC)
[13] = dose: 50.0 mg/kg/injection, schedule: Q01DX009 (ip), vehicle: Klucel (hydroxypropylcellulose) (HPC)
[14] = dose: 100.0 mg/kg/injection, schedule: Q01DX009 (ip), vehicle: saline
[15] = dose: 200.0 mg/kg/injection, schedule: Q01DX009 (ip), vehicle: saline
[16] = dose: 100.0 mg/kg/injection, schedule: Q01DX009 (ip), vehicle: saline with Tween-80

## NC(=O)c1[nH]cnc1/N=N/N(CCCl)Cc1ccccc1
[1]
  T/C: 111 % of control
[2]
  T/C: 255 % of control
[3]
  T/C: 123 % of control
dose: 133.0 mg/kg/injection, schedule: Q01DX001 (ip), vehicle: Klucel (hydroxypropylcellulose) (HPC)
  T/C: 120 % of control
[4]
  T/C: 164 % of control
[5]
  T/C: 221 % of control
dose: 400.0 mg/kg/injection, schedule: Q01DX001 (ip), vehicle: Klucel (hydroxypropylcellulose) (HPC)
  T/C: 174 % of control and 195 % of control
[6]
  T/C: 117 % of control
[7]
  T/C: 296 % of control

## O=C(CCl)Nc1cc2ccccc2c2ccccc12
dose: 75.0 mg/kg/injection, schedule: Q01DX001 (ip), vehicle: saline
  T/C: 88 % of control
dose: 150.0 mg/kg/injection, schedule: Q01DX001 (ip), vehicle: saline
  T/C: 91 % of control
dose: 300.0 mg/kg/injection, schedule: Q01DX001 (ip), vehicle: saline
  T/C: 96 % of control

## CCN(Cc1ccccc1)c1nnnn1-c1ccccc1
[8]
  T/C: 96 % of control
[9]
  T/C: 103 % of control
dose: 400.0 mg/kg/injection, schedule: Q04DX003 (ip), vehicle: saline
  T/C: 98 % of control

## CNC(=O)NNC(=O)CNC(=O)Nc1cccc([N+](=O)[O-])c1
dose: 25.0 mg/kg/injection, schedule: Q01DX009 (ip), vehicle: saline with Tween-80
  T/C: 91 % of control
[10]
  T/C: 94 % of control

## CCN(CC)C(=O)Nc1ccc([N+](=O)[O-])cc1
[11]
  T/C: 97 % of control
[3]
  T/C: 109 % of control
[12]
  T/C: 101 % of control
[5]
  T/C: 96 % of control
dose: 400.0 mg/kg/injection, schedule: Q01DX001 (ip), vehicle: carboxymethylcellulose (CMC)
  T/C: 97 % of control
[7]
  T/C: 107 % of control

## COc1ccc2c(c1C)CCC1(COC(C)=O)CC(C)(O)C(O)CC21 (centres undefined)
dose: 100.0 mg/kg/injection, schedule: Q01DX009 (ip), vehicle: saline sonified
  T/C: 96 % of control
dose: 200.0 mg/kg/injection, schedule: Q01DX009 (ip), vehicle: saline sonified
  T/C: 94 % of control
dose: 400.0 mg/kg/injection, schedule: Q01DX009 (ip), vehicle: saline sonified
  T/C: 93 % of control

## Nc1ncnc2nc(-c3ccc(-c4ccccc4)cc3)[nH]c12
dose: 50.0 mg/kg/injection, schedule: Q01DX001 (ip), vehicle: Klucel (hydroxypropylcellulose) (HPC)
  T/C: 92 % of control
[1]
  T/C: 88 % of control
dose: 200.0 mg/kg/injection, schedule: Q01DX001 (ip), vehicle: Klucel (hydroxypropylcellulose) (HPC)
  T/C: 97 % of control

## COC1OC(COC(=O)c2ccccc2)C(OC(=O)N(C)c2ccccc2)C1OC (centres undefined)
dose: 100.0 mg/kg/injection, schedule: Q04DX003 (ip), vehicle: saline with Tween-80
  T/C: 98 % of control
dose: 200.0 mg/kg/injection, schedule: Q04DX003 (ip), vehicle: saline with Tween-80
  T/C: 92 % of control
dose: 400.0 mg/kg/injection, schedule: Q04DX003 (ip), vehicle: saline with Tween-80
  T/C: 95 % of control

## Cn1c(=O)c(CC(C(=O)O)C(=O)O)nc2ccccc21
[13]
  T/C: 93 % of control
[2]
  T/C: 93 % of control
[4]
  T/C: 100 % of control

## O=[N+]([O-])c1cc(Br)c(N=Nc2ccc(O)cc2)c(Br)c1
dose: 50.0 mg/kg/injection, schedule: Q01DX001 (ip), vehicle: saline
  T/C: 92 % of control
dose: 100.0 mg/kg/injection, schedule: Q01DX001 (ip), vehicle: saline
  T/C: 114 % of control
dose: 200.0 mg/kg/injection, schedule: Q01DX001 (ip), vehicle: saline
  T/C: 97 % of control
dose: 400.0 mg/kg/injection, schedule: Q01DX001 (ip), vehicle: saline
  T/C: 92 % of control

## N#Cc1ccccc1OCCCOc1ccccc1C#N
dose: 75.0 mg/kg/injection, schedule: Q01DX009 (ip), vehicle: Klucel (hydroxypropylcellulose) (HPC)
  T/C: 100 % of control
dose: 150.0 mg/kg/injection, schedule: Q01DX009 (ip), vehicle: Klucel (hydroxypropylcellulose) (HPC)
  T/C: 99 % of control
dose: 300.0 mg/kg/injection, schedule: Q01DX009 (ip), vehicle: Klucel (hydroxypropylcellulose) (HPC)
  T/C: 106 % of control

## CC(c1ccccc1)n1cncc1C(=O)N(C)C (centres undefined)
dose: 50.0 mg/kg/injection, schedule: Q01DX009 (ip), vehicle: saline
  T/C: 96 % of control
[14]
  T/C: 101 % of control
[8]
  T/C: 97 % of control
[15]
  T/C: 97 % of control
[9]
  T/C: 93 % of control

## CC/C(=C/c1ccc(OC)c(OC)c1)[N+](=O)[O-]
dose: 25.0 mg/kg/injection, schedule: Q01DX009 (ip), vehicle: Klucel (hydroxypropylcellulose) (HPC)
  T/C: 98 % of control
[13]
  T/C: 101 % of control
dose: 50.0 mg/kg/injection, schedule: Q04DX003 (ip), vehicle: Klucel (hydroxypropylcellulose) (HPC)
  T/C: 96 % of control
[2]
  T/C: 91 % of control
[3]
  T/C: 104 % of control

## C/C(=N\NC(=O)CCCCC(=O)N/N=C(\C)c1ccc(C)cc1)c1ccc(C)cc1
[2]
  T/C: 88 % of control
[4]
  T/C: 90 % of control
[6]
  T/C: 91 % of control

## CC(O)C(C)(C)CO (centres undefined)
[14]
  T/C: 94 % of control
[15]
  T/C: 95 % of control
dose: 400.0 mg/kg/injection, schedule: Q01DX009 (ip), vehicle: saline
  T/C: 90 % of control

## C/C(=N/Nc1ccc2c(O)cc(S(=O)(=O)O)cc2c1)c1ccc(Cl)cc1
dose: 75.0 mg/kg/injection, schedule: Q01DX009 (ip), vehicle: saline
  T/C: 101 % of control
dose: 150.0 mg/kg/injection, schedule: Q01DX009 (ip), vehicle: saline
  T/C: 98 % of control
dose: 300.0 mg/kg/injection, schedule: Q01DX009 (ip), vehicle: saline
  T/C: 96 % of control

## O=[N+]([O-])c1cccc(/C=C/CCOc2ccccc2)c1
dose: 100.0 mg/kg/injection, schedule: Q01DX009 (sc), vehicle: olive oil, sesame oil, peanut oil
  T/C: 97 % of control
dose: 100.0 mg/kg/injection, schedule: Q04DX003 (sc), vehicle: olive oil, sesame oil, peanut oil
  T/C: 101 % of control
dose: 200.0 mg/kg/injection, schedule: Q01DX009 (sc), vehicle: olive oil, sesame oil, peanut oil
  T/C: 114 % of control
dose: 200.0 mg/kg/injection, schedule: Q04DX003 (sc), vehicle: olive oil, sesame oil, peanut oil
  T/C: 100 % of control
dose: 400.0 mg/kg/injection, schedule: Q01DX009 (sc), vehicle: olive oil, sesame oil, peanut oil
  T/C: 109 % of control
dose: 400.0 mg/kg/injection, schedule: Q04DX003 (sc), vehicle: olive oil, sesame oil, peanut oil
  T/C: 103 % of control

## C[C@H]1CCC/C=C/[C@@H]2C[C@H](O)C[C@H]2[C@H](O)/C=C/C(=O)O1
[11]
  T/C: 105 % of control
dose: 100.0 mg/kg/injection, schedule: Q01DX001 (ip), vehicle: other
  T/C: 92 % of control
dose: 100.0 mg/kg/injection, schedule: Q01DX015 (ip), vehicle: water
  T/C: 96 % of control
[12]
  T/C: 103 % of control
dose: 200.0 mg/kg/injection, schedule: Q01DX001 (ip), vehicle: other
  T/C: 95 % of control
dose: 200.0 mg/kg/injection, schedule: Q01DX015 (ip), vehicle: water
  T/C: 103 % of control
dose: 400.0 mg/kg/injection, schedule: Q01DX001 (ip), vehicle: other
  T/C: 93 % of control

## CN(CC(N)=O)C(=O)CNC(=O)OCc1ccccc1 (Cbz-Gly-[Sar]-NH2)
[3]
  T/C: 96 % of control
[5]
  T/C: 99 % of control
[7]
  T/C: 97 % of control

## CCN(CC)CCNc1ccc(N=Nc2ccc(SC)cc2)c2ccccc12
dose: 6.25 mg/kg/injection, schedule: Q01DX015 (ip), vehicle: carboxymethylcellulose (CMC)
  T/C: 91 % of control
dose: 12.5 mg/kg/injection, schedule: Q01DX015 (ip), vehicle: carboxymethylcellulose (CMC)
  T/C: 93 % of control
dose: 25.0 mg/kg/injection, schedule: Q01DX015 (ip), vehicle: carboxymethylcellulose (CMC)
  T/C: 86 % of control
[10]
  T/C: 94 % of control
dose: 50.0 mg/kg/injection, schedule: Q01DX015 (ip), vehicle: carboxymethylcellulose (CMC)
  T/C: 87 % of control
dose: 50.0 mg/kg/injection, schedule: Q04DX003 (ip), vehicle: saline
  T/C: 96 % of control
[16]
  T/C: 103 % of control
[8]
  T/C: 89 % of control
[9]
  T/C: 88 % of control

## Cn1nc(N)c2ncc(-c3ccc(Cl)cc3)nc21
[16]
  T/C: 93 % of control
dose: 200.0 mg/kg/injection, schedule: Q01DX009 (ip), vehicle: saline with Tween-80
  T/C: 96 % of control
dose: 400.0 mg/kg/injection, schedule: Q01DX009 (ip), vehicle: saline with Tween-80
  T/C: 87 % of control
